Experimental findings from ChEMBL document CHEMBL1201862, “PubChem BioAssay data set” (2004) are described below.

Assay in all cases: NCI-60 cell line screen, 48 h
The subject of test [1] is SF-295.
Test [2] has as its system KM12.
Test [3] concerns SW-620.
The test system of test [4] is EKVX.
For test [5], the system named is OVCAR-3.
For test [6], the system named is MOLT-4.
In test [7] the test system is M19-MEL.
Test [8] concerns LXFL 529.
Test [9] relates to U-251.
The test system of test [10] is NCI-H460.
In test [11] the test system is HCT-15.
The test system of test [12] is SN12C.
In test [13] the test system is OVCAR-8.
Test [14] relates to SNB-19.
The subject of test [15] is SNB-75.
For test [16], the system named is UACC-62.
The subject of test [17] is SK-MEL-2.
Test [18] has as its system MDA-MB-231.
Test [19] has as its system DU-145.
The subject of test [20] is NCI/ADR-RES.

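Growth conditions: 96-well plates. Treatment: test compound, 48 hours, 5 concentrations. Analysis: linear interpolation between bracketing concentrations; unreached endpoints set to highest concentration. GI50 is the concentration that inhibits growth by half.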 Activity calls are given as the source filed them. No stated cut-off is given here; in the data, active = GI50 up to about 1.1 µM and inactive = higher.

As to `CN(C)c1ccc(-c2cc(O)c3ccccc3n2)cc1`, the GI50 in test [1], in [2], in [3], in [4], in [5] and in test [6] was > 100 µM (inactive) each time. The GI50 in test [7] is > 100 µM (inactive); in test [8] it was > 100 µM (inactive); in [9], > 100 µM (inactive); in test [10], > 100 µM (inactive); in [11], over 100 µM; in test [12], > 100 µM (inactive). For the same molecule, the GI50 in [13] and in [14] was > 100 µM (inactive) in each case.

For the molecule `COc1ccc(C2C3=C(COC3=O)Oc3cc4c(cc32)OCO4)cc1` (stereo not given), the GI50 in test [1] was 5.15 µM (inactive); in test [3], 6.21 µM (inactive); in test [15], 8.3 µM (inactive); in test [4], 50.5 µM (inactive); in [5] it was 7.18 µM (inactive); in test [6], 6.71 µM (inactive). For the same molecule, the GI50 in [16] is 10.6 µM (inactive); in [7] it was 15.5 µM (inactive); in test [17], 47.1 µM (inactive); in test [9], 23.9 µM (inactive); in test [10], 10.8 µM (inactive); in test [11], 6.27 µM. Further, the GI50 in test [12] is 27.9 µM (inactive); in test [13], 36.2 µM (inactive); in test [14], 61.4 µM (inactive).

With `Cc1oc2c(C)c(O)c3c(c2c1C1(C)OCCO1)C(=O)C=C(Cl)C3=O`, the GI50 in test [1], in test [2], in test [3], in test [4], in test [5] and in test [6] was > 100 µM (inactive) each time. The GI50 in [7] was > 100 µM (inactive); in test [17], > 100 µM (inactive); in test [8], > 100 µM (inactive); in test [9] it was > 100 µM (inactive); in [10], > 100 µM (inactive); in test [11], over 100 µM. The GI50 in [12], in test [13] and in [14] was > 100 µM (inactive) throughout.

Turning to `O=c1c(Cc2ccccc2)c(O)cc2n1CCC2`, the GI50 in test [1], in test [2], in [3], in test [15], in test [4] and in test [5] was > 100 µM (inactive) each time. Moreover, the GI50 in [6], in test [16], in test [7], in test [8], in [9] and in [10] was > 100 µM (inactive) in each case. Besides, the GI50 in test [11] is over 100 µM; in [12] it was > 100 µM (inactive); in test [13], > 100 µM (inactive); in [14], > 100 µM (inactive).

For `CC(=O)OC12OC(C)(C3C(=O)N(c4ccccc4)C(=O)C31)N(c1ccccc1)C2=O` (stereo not given), the GI50 in test [18] was > 100 µM (inactive); in test [1], > 100 µM (inactive); in test [2], > 100 µM (inactive); in [3] it was > 100 µM (inactive); in [15], > 100 µM (inactive); in test [4] it was 84.7 µM (inactive). Besides, the GI50 in [5], in test [6], in test [16], in test [19], in test [20] and in [17] was > 100 µM (inactive) in each case. The GI50 is > 100 µM (inactive) in test [9]; > 100 µM (inactive) in test [10]; over 100 µM in [11]; > 100 µM (inactive) in test [12]; > 100 µM (inactive) in test [13]; > 100 µM (inactive) in test [14].

In the case of `N#CC(C#N)=Cc1ccc(CP(=O)(O)O)cc1`, the GI50 in test [1], in test [2], in test [3], in test [4], in test [5] and in [6] was > 100 µM (inactive) in each case. In addition, the GI50 in [16], in [7], in [17], in test [8], in test [9] and in test [10] was > 100 µM (inactive) each time. Moreover, the GI50 is over 100 µM in test [11], > 100 µM (inactive) in [12], > 100 µM (inactive) in [13] and > 100 µM (inactive) in [14].

Regarding `Cc1cc(N(CCC#N)CCC#N)ccc1/N=N/c1cccc(Cl)c1`, the GI50 in [1] was > 100 µM (inactive); in test [2] it was > 100 µM (inactive); in test [3], > 100 µM (inactive); in test [4], > 100 µM (inactive); in test [5], > 100 µM (inactive); in test [16] it was 70.8 µM (inactive). Further, the GI50 in [7] was > 100 µM (inactive); in [17], > 100 µM (inactive); in test [9] it was > 100 µM (inactive); in test [10], 5.75 µM (inactive); in [12], > 100 µM (inactive); in test [13], > 100 µM (inactive). Further, in test [14], the GI50 was 51.8 µM (inactive).

Consider `O=C(c1ccccc1)c1c(C(=O)c2ccccc2)c(-c2ccccc2)c2c(-c3ccccc3)sc(-c3ccccc3)c2c1-c1ccccc1`, for which the GI50 in [1], in [2], in test [3], in test [15], in [4] and in [5] was > 100 µM (inactive) each time. For the same molecule, the GI50 was > 100 µM (inactive) in test [16]; > 100 µM (inactive) in test [7]; > 100 µM (inactive) in test [8]; > 100 µM (inactive) in [9]; > 100 µM (inactive) in [10]; over 100 µM in test [11]. For the same molecule, the GI50 in [12], in test [13] and in test [14] was > 100 µM (inactive) throughout.

As to `Cc1cccc2cc3c(ccc4ccccc43)c[n+]12`, the GI50 was 47.5 µM (inactive) in test [18]; 9.86 µM (inactive) in test [1]; 2.75 µM (inactive) in [2]; 21.3 µM (inactive) in [3]; 6.56 µM (inactive) in test [15]; 4.61 µM (inactive) in test [4]. Moreover, the GI50 in test [5] was 2.06 µM (inactive); in test [6], 4.89 µM (inactive); in test [16], 23 µM (inactive); in test [19] it was 64.6 µM (inactive); in test [20] it was > 100 µM (inactive); in [17], 20.3 µM (inactive). Besides, the GI50 in test [9] was 2.99 µM (inactive); in test [10] it was 27.2 µM (inactive); in [11], over 100 µM; in [12] it was 3.18 µM (inactive); in test [13], 15.4 µM (inactive); in [14] it was 6.87 µM (inactive).

With `COc1ccc(N2C(=O)C3c4[nH]c5ccccc5c4C4CC(C)CC(C)C4C3C2=O)cc1` (stereo not given), the GI50 in test [1], in [3], in test [15], in test [4], in test [6] and in test [16] was > 100 µM (inactive) throughout. For the same molecule, the GI50 is > 100 µM (inactive) in [7]; > 100 µM (inactive) in test [8]; > 100 µM (inactive) in [9]; over 100 µM in test [11]; > 100 µM (inactive) in [12]; > 100 µM (inactive) in test [13]. Moreover, the GI50 in test [14] was > 100 µM (inactive).

For the molecule `CC1=C(C(=O)Nc2ccccc2C)C(c2ccc(Cl)cc2)C(C(=O)Nc2ccccc2C)=C(C)N1`, the GI50 in [1], in test [2], in [3], in test [4], in test [5] and in test [6] was > 100 µM (inactive) throughout. For the same molecule, the GI50 in test [16], in [7], in test [17], in test [8], in [9] and in test [10] was > 100 µM (inactive) throughout. Besides, the GI50 in test [11] is over 100 µM; in test [12] it was > 100 µM (inactive); in test [13], > 100 µM (inactive); in test [14], > 100 µM (inactive).

As for `COc1ccccc1/C=C\c1cc(OC)c(OC)c(OC)c1`, the GI50 in test [1] was 4.83 µM (inactive); in [2], 6.89 µM (inactive); in [3] it was 3.85 µM (inactive); in test [15], 10.7 µM (inactive); in [4], 15.2 µM (inactive); in test [5], 10.2 µM (inactive). For the same molecule, the GI50 in [6] was 4.31 µM (inactive); in test [16], 5.9 µM (inactive); in [7] it was 9.1 µM (inactive); in test [8], 12.9 µM (inactive); in [9], 6.03 µM (inactive); in test [10], 6.85 µM (inactive). Also, the GI50 in test [11] was 4.2 µM; in test [12] it was 29.3 µM (inactive); in [13], 24.5 µM (inactive); in test [14], 39.4 µM (inactive).

As to `OCC1CCC(n2cnc3c(O)ncnc32)O1` (stereo not given), the GI50 in test [18] is > 1000 µM (inactive); in test [2] it was > 100 µM (inactive); in test [3] it was > 100 µM (inactive); in [4] it was > 100 µM (inactive); in [5], > 100 µM (inactive); in [6] it was > 100 µM (inactive). Also, the GI50 is > 100 µM (inactive) in [16]; > 1000 µM (inactive) in [19]; > 100 µM (inactive) in [20]; > 100 µM (inactive) in [7]; > 100 µM (inactive) in [17]; > 100 µM (inactive) in test [10]. Further, the GI50 was over 100 µM in test [11], > 100 µM (inactive) in test [12] and > 100 µM (inactive) in test [13].
